# Values joined by “and” are separate entries in the source; they are usually repeats but may differ in a detail not shown here. Identical values can stand only once. Counter-ions that a name gives are not always drawn.
# Key:
# intraocular pressure = experiment: Intraocular pressure (pneumotonometer) after repeated topical and subcutaneous administration in normotensive rabbits; format: in vivo, New Zealand White rabbits
# Protocol: To measure the tolerability and effect of Compound 1 (sodium salt) on intraocular pressure following repeated topical and subcutaneous administration, normotensive New Zealand White rabbits were treated with Compound 1 (sodium salt). Animals were acclimated 1 to 2 times per day to the intraocular pressure (IOP) measurement procedures prior to initiation of the study to determine baseline IOP levels. IOP acclimation was performed in the two weeks prior to study start for a total of 5 days. Animals with unacceptable IOP values were excluded from the study. Prior to taking all IOP measurements, 1 to 2 drops of a 0.5% proparacaine solution were applied to the eye as a topical anesthetic. OP measurements were performed with a pneumotonometer. Test and control formulations were administered to the animals once or twice daily topically into both eyes or subcutaneously starting on Day 1 according to TABLE 20 and TABLE 21 below. PM dosing, where applicable, was performed ˜8 hours after AM dosing. IOP measurements were performed twice (AM and PM) at baseline (prior to the start of dosing), twice (AM and PM) on Days 1 and 7, and once daily (AM) on Days 2-6 and Day 8. Prior to taking all IOP measurements, 1 to 2 drops of a 0.5% proparacaine solution were applied to the eye as a topical anesthetic. IOP measurements were performed with a pneumotonometer. AM IOP measurements were performed 2 hours after AM dosing; the only exceptions were Day 8 AM measurements, which were performed 24 hours after the final dose. PM IOP measurements were performed ˜5 hours (baseline and Day 1) or ˜4 hours (Day 7) after AM IOP measurements, prior to PM dosing, with at least 15 minutes elapsing between anesthetic application for PM IOP measurements and PM dosing. The final round of slit-lamp examinations was performed on Day 8.
# [1] = Ophthalmic examination (slit-lamp biomicroscopy, modified McDonald-Shadduck Scoring System) after repeated dosing; format: in vivo, New Zealand White rabbits
# Protocol: Prior to placement on study, each animal underwent an ophthalmic examination (slitlamp biomicroscopy and indirect ophthalmoscopy). Ocular findings were scored according to a modified McDonald-Shadduck Scoring System and recorded on a standardized data sheet. The acceptance criteria for placement on study were scores of “0” for all variables.
# Ophthalmic examination (slit-lamp biomicroscopy only) was performed at baseline (prior to the start of dosing) and on Days 1, 4, and 8. Ocular findings were scored according to a modified McDonald-Shadduck Scoring System. A slit lamp was used to observe conjunctival discharge, […], […], the cornea, the surface area of cornea involvement, pannus, pupillary response, aqueous flare, cellular flare, iris involvement, and the lens. An indirect ophthalmoscope was used to observe the vitreous, vitral hemorrhage, retinal detachment, retinal hemorrhage, and choroidal/retinal inflammation. Animals were prepared for observation by using a solution (atropine, tropicaminde, or phenylephrine) to dilate the pupils.
# Conjunctival discharge was defined as a whitish gray precipitate from the eye. Scoring was as follows.
# Conjunctival congestion causes the blood vessels of the eye to become enlarged. Scoring was as follows.
# Conjunctival swelling, defined as swelling of the conjunctiva, was scored as follows.
# [2] = Group 4, 1.2 mg/eye topical QD, Day 1, AM, OD
# [3] = Group 4, 1.2 mg/eye topical QD, Day 2, AM, OD
# [4] = Group 4, 1.2 mg/eye topical QD, Day 5, AM, OD
compound,measurement,setting,value
COC(=O)N[C@@H](Cc1ccccc1)C(=O)N[C@@H](Cc1ccc(NS(=O)(=O)O)cc1)c1csc(-c2cccs2)n1 [Compound 1 sodium salt],"Intraocular pressure (IOP), individual animal","intraocular pressure; Group 3, 1.2 mg/eye topical BID, Day 5, AM, OS",22.3 and 23.5
same,"Intraocular pressure (IOP), group Average","intraocular pressure; Group 3, 1.2 mg/eye topical BID, Day 6, AM, OS",24.7
same,"Intraocular pressure (IOP), group Average","intraocular pressure; Group 3, 1.2 mg/eye topical BID, Day 7, AM, OS",22.0
same,"Intraocular pressure (IOP), group Average","intraocular pressure; Group 3, 1.2 mg/eye topical BID, Day 7, PM, OD",23.7
same,IOP values compared to Group 1 (Vehicle),"intraocular pressure; Group 3, 1.2 mg/eye topical BID, over the course of dosing",lower IOP values
same,"Intraocular pressure (IOP), group Average",intraocular pressure; [2],21.2
same,"Intraocular pressure (IOP), individual animal",intraocular pressure; [2],22.0 and 20.2
same,"Intraocular pressure (IOP), individual animal","intraocular pressure; Group 4, 1.2 mg/eye topical QD, Day 1, AM, OS",22.0 and 23.3 and 21.2
same,"Intraocular pressure (IOP), individual animal","intraocular pressure; Group 4, 1.2 mg/eye topical QD, Day 1, PM, OD",21.3 and 24.0
same,"Intraocular pressure (IOP), individual animal","intraocular pressure; Group 4, 1.2 mg/eye topical QD, Day 1, PM, OS",22.5 and 25.5
same,"Intraocular pressure (IOP), group Average",intraocular pressure; [3],20.0
same,"Intraocular pressure (IOP), individual animal",intraocular pressure; [3],20.0 and 20.3
same,"Intraocular pressure (IOP), individual animal","intraocular pressure; Group 4, 1.2 mg/eye topical QD, Day 2, AM, OS",21.0
same,"Intraocular pressure (IOP), individual animal","intraocular pressure; Group 4, 1.2 mg/eye topical QD, Day 3, AM, OD",23.5 and 21.0
same,"Intraocular pressure (IOP), individual animal","intraocular pressure; Group 4, 1.2 mg/eye topical QD, Day 3, AM, OS",20.0 and 21.2
same,"Intraocular pressure (IOP), individual animal","intraocular pressure; Group 4, 1.2 mg/eye topical QD, Day 4, AM, OD",21.5 and 22.2 and 20.7
same,"Intraocular pressure (IOP), individual animal","intraocular pressure; Group 4, 1.2 mg/eye topical QD, Day 4, AM, OS",20.0 and 24.3 and 23.5
same,"Intraocular pressure (IOP), group Average",intraocular pressure; [4],21.0
same,"Intraocular pressure (IOP), individual animal",intraocular pressure; [4],23.8
same,"Intraocular pressure (IOP), individual animal","intraocular pressure; Group 4, 1.2 mg/eye topical QD, Day 5, AM, OS",22.7 and 22.0
same,"Intraocular pressure (IOP), group Average","intraocular pressure; Group 4, 1.2 mg/eye topical QD, Day 7, AM, OS",23.0
same,IOP values compared to Group 1 (Vehicle),"intraocular pressure; Group 4, 1.2 mg/eye topical QD, over the course of dosing",lower IOP values
same,IOP values compared to Group 1 (Vehicle),"intraocular pressure; Group 5, 10 mg/kg subcutaneous BID",Lower IOP values compared to Group 1 were also seen in the early part of the study
same,"Intraocular pressure (IOP), group Average","intraocular pressure; Group 5, 10 mg/kg subcutaneous BID, Day 2, AM, OD",21.5
same,"Intraocular pressure (IOP), group Average","intraocular pressure; Group 5, 10 mg/kg subcutaneous BID, Day 3, AM, OD",20.7
same,"Intraocular pressure (IOP), group Average","intraocular pressure; Group 5, 10 mg/kg subcutaneous BID, Day 3, AM, OS",21.3
same,"Intraocular pressure (IOP), group Average","intraocular pressure; Group 5, 10 mg/kg subcutaneous BID, Day 4, AM, OD",21.9
same,"Intraocular pressure (IOP), group Average","intraocular pressure; Group 5, 10 mg/kg subcutaneous BID, Day 6, AM, OD",24.5
same,"Intraocular pressure (IOP), group Average","intraocular pressure; Group 5, 10 mg/kg subcutaneous BID, Day 6, AM, OS",25.0
same,"Intraocular pressure (IOP), group Average","intraocular pressure; Group 5, 10 mg/kg subcutaneous BID, Day 7, AM, OS",23.9
same,"Intraocular pressure (IOP), group Average","intraocular pressure; Group 5, 10 mg/kg subcutaneous BID, Day 7, PM, OD",24.1
same,"Intraocular pressure (IOP), group Average","intraocular pressure; Group 5, 10 mg/kg subcutaneous BID, Day 8, AM, OS",24.0
same,apparent reduction in intraocular pressure values,"intraocular pressure; Groups 3 and 4 (1.2 mg/eye topical BID, QD), Day 7 and Day 8 (24 hours after the end of dosing)",persisted
same,effect on intraocular pressure,"intraocular pressure; topically administered, 1.2 mg/eye dose, QD or BID",observed to reduce intraocular pressure
same,"mild conjunctival congestion (scores=1), animals affected","[1]; Group 2, 0.45 mg/eye topical BID, Day 1",all five animals
same,"mild conjunctival congestion (scores=1), animals affected","[1]; Group 2, 0.45 mg/eye topical BID, Day 4",two animals
same,"mild conjunctival congestion (scores=1), animals affected","[1]; Group 3, 1.2 mg/eye topical BID, Day 1",two animals
same,"mild conjunctival congestion (scores=1), animals affected","[1]; Group 3, 1.2 mg/eye topical BID, Day 4",two animals
same,"mild conjunctival congestion (scores=1), animals affected","[1]; Group 4, 1.2 mg/eye topical QD, Day 1",one animal
same,"mild conjunctival congestion (scores=1), animals affected","[1]; Group 4, 1.2 mg/eye topical QD, Day 4",one animal
same,"mild conjunctival congestion (scores=1), animals affected","[1]; Group 5, 10 mg/kg subcutaneous BID, Day 1",three animals
same,"mild conjunctival congestion (scores=1), animals affected","[1]; Group 5, 10 mg/kg subcutaneous BID, Day 4",none
same,ocular anomalies,"[1]; all groups, Day 8",No ocular anomalies
same,relation of mild conjunctival congestion to the test article,[1]; repeated topical and subcutaneous dosing,appeared to be unrelated to the test article
